We go through 26 compounds from patent US8815853B2, “Pyrimidinone derivatives, preparation thereof and pharmaceutical use thereof” (Sanofi, priority 2010, dated 2014).

For orientation: melting point means the temperature of the solid-liquid transition.

One data set concerns the target T1, Vps34 (Homo sapiens, UniProt Q8NEB9).
T1 construct: purchased Invitrogen PV5126
In words: Phosphorylation of phosphatidylinositol (PI) with Vps34 in vitro, ADP detected by TR-FRET (HTRF Transcreener ADP kit). In kind it is biochemical. The note with it: 10 μM ATP, 55 μg/mL PI, about 3 nM of Vps34, 1 hour at room temperature; absolute CI50, average of 2 independent experiments; read-out: VPS34 CI 50. How it is done: Study of the Phosphorylation of Phosphatidylinositol (PI) with Vps34 In Vitro
This test is based on the detection of the ADP produced during phosphorylation of PI with Bps34 in the presence of ATP. ADP is detected by TR-FRET (Time resolved—Fluorescence Resonance Energy transfer) by using the Transcreener kit marketed by Cisbio (HTRF® Transcreener® ADP, reference 62ADPPEB).
The reaction is started with 10 μL of an ATP solution (Sigma A7699) in a buffer A and lasts for 1 hour at room temperature. […] The enzyme amount is adapted to each batch so as to form about 2 μM of ADP during the reaction. In parallel, an ADP and ATP range giving the possibility of calibration results is prepared according to the indications of the kit. Controls not containing any enzyme (negative control) or not containing any molecules (positive control) are also prepared in parallel. […] Fluorescence emission is detected on a Rubystar apparatus at 620 and 665 nm. The signal ratio is calculated by dividing the 665 nm signal by the 620 nm signal and then by multiplying by 10,000. The signal ratios are converted into an ADP concentration by using the calibration range and according to the instructions of the kit. The percentages of inhibition of the molecules are calculated relatively to the positive controls according to the formula (1−signal ratio of the molecule/signal ratio of the positive control)×100. […] With 2 independent experiments it is possible to calculate the average of the CI50s.

T1 sequence (Q8NEB9 whole entry): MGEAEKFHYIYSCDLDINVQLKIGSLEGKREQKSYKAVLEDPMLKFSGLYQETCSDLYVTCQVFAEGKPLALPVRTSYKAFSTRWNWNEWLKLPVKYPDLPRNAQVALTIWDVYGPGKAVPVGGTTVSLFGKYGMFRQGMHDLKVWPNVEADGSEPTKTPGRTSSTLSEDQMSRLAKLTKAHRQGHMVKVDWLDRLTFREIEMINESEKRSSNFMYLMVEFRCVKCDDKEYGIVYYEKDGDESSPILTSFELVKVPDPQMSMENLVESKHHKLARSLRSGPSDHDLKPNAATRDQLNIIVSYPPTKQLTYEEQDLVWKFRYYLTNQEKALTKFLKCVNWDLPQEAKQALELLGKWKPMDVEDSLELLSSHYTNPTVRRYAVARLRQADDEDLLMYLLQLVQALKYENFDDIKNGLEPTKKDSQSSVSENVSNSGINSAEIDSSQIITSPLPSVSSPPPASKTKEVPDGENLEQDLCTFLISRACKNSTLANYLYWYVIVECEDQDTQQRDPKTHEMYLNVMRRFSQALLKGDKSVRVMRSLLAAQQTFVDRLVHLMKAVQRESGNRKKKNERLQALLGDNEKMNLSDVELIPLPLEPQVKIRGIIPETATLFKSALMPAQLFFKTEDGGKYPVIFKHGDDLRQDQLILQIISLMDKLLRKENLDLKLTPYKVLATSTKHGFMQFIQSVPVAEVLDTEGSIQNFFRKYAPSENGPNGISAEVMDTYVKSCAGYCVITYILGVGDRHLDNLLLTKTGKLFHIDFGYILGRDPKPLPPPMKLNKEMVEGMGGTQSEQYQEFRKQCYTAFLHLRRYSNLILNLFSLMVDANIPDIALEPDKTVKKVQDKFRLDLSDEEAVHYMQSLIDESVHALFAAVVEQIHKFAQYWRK

With `CCC(CC)CN1c2nc(N3CCOCC3)cc(=O)n2C[C@@]1(C)C(F)(F)F` [Example 1a, (2S)-1-(2-Ethylbutyl)-2-methyl-7-(morpholin-4-yl)-2-(trifluoromethyl)-2,3-dihydroimidazo[1,2-a]pyrimidin-5(1H)-one], the IC50 at Vps34 is below 10 nM.
Take `CCC(CC)CN1c2nc(N3CCOCC3)cc(=O)n2CC[C@H]1C(F)(F)F` [Example 1b, (8S)-9-(2-Ethylbutyl)-2-(morpholin-4-yl)-8-(trifluoromethyl)-6,7,8,9-tetrahydro-4H-pyrimido[1,2-a]pyrimidin-4-one]: the IC50 at Vps34 is below 10 nM.
As for `C[C@@]1(C(F)(F)F)Cn2c(nc(N3CCOCC3)cc2=O)N1C1CC1` [Example 2a, (2S)-1-Cyclopropyl-2-methyl-7-(morpholin-4-yl)-2-(trifluoromethyl)-2,3-dihydroimidazo[1,2-a]pyrimidin-5(1H)-one], the IC50 at Vps34 is below 10 nM.
On the same count and under the same terms, the same measure for `O=c1cc(N2CCOCC2)nc2n1CC[C@@H](C(F)(F)F)N2CC1CC1` [Example 2b, (8S)-9-(Cyclopropylmethyl)-2-(morpholin-4-yl)-8-(trifluoromethyl)-6,7,8,9-tetrahydro-4H-pyrimido[1,2-a]pyrimidin-4-one]: below 10 nM.
Same read-out and setting: the figure for `C[C@@]1(C(F)(F)F)Cn2c(nc(N3CCOCC3)cc2=O)N1C1CCCC1` [Example 3a, (2S)-1-Cyclopentyl-2-methyl-7-(morpholin-4-yl)-2-(trifluoromethyl)-2,3-dihydroimidazo[1,2-a]pyrimidin-5(1H)-one] is below 10 nM; for `O=c1cc(N2CCOCC2)nc2n1CC[C@@H](C(F)(F)F)N2C1CCCC1` [Example 3b, (8S)-9-Cyclopentyl-2-(morpholin-4-yl)-8-(trifluoromethyl)-6,7,8,9-tetrahydro-4H-pyrimido[1,2-a]pyrimidin-4-one] it is below 10 nM.
On to `CC(C)OCCN1c2nc(N3CCOCC3)cc(=O)n2C[C@@]1(C)C(F)(F)F` [Example 4a, (S)-1-(2-Isopropoxy-ethyl)-2-methyl-7-(morpholin-4-yl)-2-(trifluoromethyl)-2,3-dihydroimidazo[1,2-a]pyrimidin-5(1H)-one], for which the melting point was determined as 88 °C. Also, the IC50 on Vps34 is 10 to 100 nM.
Turning to `O=c1cc(N2CCOCC2)nc2n1CC[C@@H](C(F)(F)F)N2CCO` [Example 4b, (8S)-9-(2-Hydroxyethyl)-2-(morpholin-4-yl)-8-(trifluoromethyl)-6,7,8,9-tetrahydro-4H-pyrimido[1,2-a]pyrimidin-4-one], the melting point is 117 °C. The IC50 on Vps34 lay in the range of 10 to 100 nM.
Taken in the same sequence, the figures for `CC(C)(O)CN1c2nc(N3CCOCC3)cc(=O)n2C[C@@]1(C)C(F)(F)F` [Example 5a, (S)-1-(2-Hydroxy-2-methyl-propyl)-2-methyl-7-(morpholin-4-yl)-2-(trifluoromethyl)-2,3-dihydroimidazo[1,2-a]pyrimidin-5(1H)-one] were 72 °C and 10 to 100 nM.
As to `COC(C)(C)CN1c2nc(N3CCOCC3)cc(=O)n2C[C@@]1(C)C(F)(F)F` [Example 6a, (S)-1-(2-Methoxy-2-methyl-propyl)-2-methyl-7-(morpholin-4-yl)-2-(trifluoromethyl)-2,3-dihydroimidazo[1,2-a]pyrimidin-5(1H)-one], the IC50 on Vps34 is below 10 nM.
`O=c1cc(N2CCOCC2)nc2n1CC[C@@H](C(F)(F)F)N2CCOCC(F)(F)F` [Example 6b, (S)-2-(Morpholin-4-yl)-9-[2-(2,2,2-trifluoro-ethoxy)-ethyl]-8-(trifluoromethyl)-6,7,8,9-tetrahydro-4H-pyrimido[1,2-a]pyrimidin-4-one] showed a melting point of 107.8 °C. For the same compound, at Vps34, the IC50 was 10 to 100 nM.
For `CC(C)OCCN1c2nc(N3CCOCC3)cc(=O)n2CC1(C)C` [Example 7a, 1-(2-Isopropoxyethyl)-2,2-dimethyl-7-(morpholin-4-yl)-2,3-dihydroimidazo[1,2-a]pyrimidin-5(1H)-one], the IC50 at Vps34 was above 100 nM.
As for `CC(C)OCCN1c2nc(N3CCOCC3)c(F)c(=O)n2CC[C@H]1C(F)(F)F` [Example 7b, (8S)-3-Fluoro-9-(2-isopropoxy-ethyl)-2-(morpholin-4-yl)-8-(trifluoromethyl)-6,7,8,9-tetrahydro-4H-pyrimido[1,2-a]pyrimidin-4-one], the melting point amounted to 117 °C. Moreover, the IC50 on Vps34 was below 10 nM.
For the compound `COCCN1c2nc(N3CCOCC3)cc(=O)n2CC12CCCC2` [Example 8a, 1′-(2-Methoxyethyl)-7′-morpholin-4-ylspiro[cyclopentane-1,2′-imidazo[1,2-a]pyrimidin]-5′-one], the IC50 on Vps34 is above 100 nM.
For the compound `CC(C)(O)CN1c2nc(N3CCOCC3)cc(=O)n2CC[C@H]1C(F)(F)F` [Example 8b, (8S)-9-(2-Hydroxy-2-methylpropyl)-2-(morpholin-4-yl)-8-(trifluoromethyl)-6,7,8,9-tetrahydro-4H-pyrimido[1,2-a]pyrimidin-4-one], the IC50 on Vps34 is below 10 nM.
Regarding `CC(C)OCCN1c2nc(N3CCOCC3)cc(=O)n2CC12CCCC2` [Example 9a, 1′-(2-isopropoxyethyl)-7′-morpholin-4-ylspiro[cyclopentane-1,2′-imidazo[1,2-a]pyrimidin]-5′-one], at Vps34, the IC50 lay within 10 to 100 nM.
With `Cc1c(N2CCOCC2)nc2n(c1=O)CC[C@@H](C(F)(F)F)N2CC(C)(C)O` [Example 9b, (S)-9-(2-Hydroxy-2-methyl-propyl)-3-methyl-2-(morpholin-4-yl)-8-trifluoromethyl-6,7,8,9-tetrahydro-4H-pyrimido[1,2-a]pyrimidin-4-one], the melting point stood at 170 °C. Further, the IC50 at Vps34 was above 100 nM.
Taken in the same sequence, the figures for `COC(C)(C)CN1c2nc(N3CCOCC3)cc(=O)n2CC[C@H]1C(F)(F)F` [Example 10b, (S)-9-(2-Methoxy-2-methyl-propyl)-2-(morpholin-4-yl)-8-trifluoromethyl-6,7,8,9-tetrahydro-4H-pyrimido[1,2-a]pyrimidin-4-one] were 172 °C and 10 to 100 nM.
For the compound `CC(C)OCCN1c2nc(N3CCOCC3)cc(=O)n2CC[C@@]1(C)C(F)(F)F` [Example 11Ab, (8S)-8-Methyl-2-(morpholin-4-yl)-9-(2-(propan-2-yloxy)ethyl)-8-(trifluoromethyl)-6,7,8,9-tetrahydro-4H-pyrimido[1,2-a]pyrimidin-4-one], the IC50 on Vps34 is below 10 nM.
The same measure, in the same setting: the same measure for `CC(C)OCCN1c2nc(N3CCOCC3)cc(=O)n2CC[C@]1(C)C(F)(F)F` [Example 11Bb, (8R)-8-Methyl-2-(morpholin-4-yl)-9-(2-(propan-2-yloxy)ethyl)-8-(trifluoromethyl)-6,7,8,9-tetrahydro-4H-pyrimido[1,2-a]pyrimidin-4-one]: above 100 nM; for `COCCN1c2nc(N3CCOCC3)cc(=O)n2CCC1(C)C` [Example 12b, 9-(2-Methoxyethyl)-8,8-dimethyl-2-(morpholin-4-yl)-6,7,8,9-tetrahydro-4H-pyrimido[1,2-a]pyrimidin-4-one]: 10 to 100 nM.
As for `CC(C)OCCN1c2nc(N3CCOCC3)cc(=O)n2CCC1(C)C` [Example 13b, 9-(2-Isopropoxyethyl)-8,8-dimethyl-2-(morpholin-4-yl)-6,7,8,9-tetrahydro-4H-pyrimido[1,2-a]pyrimidin-4-one], the IC50 on Vps34 was 10 to 100 nM.
In the case of `COCCN1CC(C)(C)Cn2c1nc(N1CCOCC1)cc2=O` [Example 14b, 9-(2-Methoxyethyl)-7,7-dimethyl-2-(morpholin-4-yl)-6,7,8,9-tetrahydro-4H-pyrimido[1,2-a]pyrimidin-4-one], on Vps34, the IC50 is above 100 nM.
On to `CC(C)OCCN1CC(C)(C)Cn2c1nc(N1CCOCC1)cc2=O` [Example 15b, 9-(2-Isopropoxyethyl)-7,7-dimethyl-2-(morpholin-4-yl)-6,7,8,9-tetrahydro-4H-pyrimido[1,2-a]pyrimidin-4-one], for which the IC50 on Vps34 is above 100 nM.
Same read-out and setting: the figure for `CC(C)OCCN1CC2(CC2)Cn2c1nc(N1CCOCC1)cc2=O` [Example 16b, 1-(2-Isopropoxyethyl)-8′-(morpholin-4-yl)-1′,2′-dihydro-spiro[cyclopropane-1,3′-pyrimido[1,2-a]pyrimidin]-6′-one] is 10 to 100 nM.
On to `CS(=O)(=O)CCN1c2nc(N3CCOCC3)cc(=O)n2CC[C@H]1C(F)(F)F` [Example 17b, (8S)-9-(2-Methanesulfonyl-ethyl)-2-morpholin-4-yl-8-trifluoromethyl-6,7,8,9-tetrahydro-pyrimido[1,2-a]pyrimidin-4-one], for which the melting point was 96 °C. The IC50 at Vps34 was below 10 nM.
